In patent publication US12029804B2, “Peptide for promoting mucous membrane permeation and composition containing same” (SOONCHUNHYANG UNIVERSITY INDUSTRY ACADEMY COOPERATION …, priority 2018, dated 2024):
Where two headings read alike, the source gives them in different places. Bridge positions count the residues as written; N and C are the ends. Square brackets hold non-standard residues; d marks the D form. Ends that are not written are not given here. Peptide text beside a SMILES is read from it. I, II: the chains in the order shown. ξ: configuration not given here. Dap(N3) = [N-]=[N+]=NC[C@H](N)C(=O)O; ξDap(N3) = [N-]=[N+]=NCC(N)C(=O)O

Legend:
in vivo = conditions: rat, in vivo
Protocol: (§1) For a control group, a 0.5% (w/v) levan aqueous solution including doxorubicin without the peptide was prepared.
(§2) At this time, the dosage of peptide-containing drug was 10 mg/kg for each group.
(§3) Before drug administration, the rat was anesthetized and cannulated into the femoral veno-artery using PE-50. An abdominal cavity was opened and the test substance was administered to an upper duodenum of the small intestine.
(§4) After administration of the solution through a cannula inserted into the femoral vein of the rat, each 250 μl of blood was collected at 5, 10, 20, 40, 60, 120, 180 and 240 minutes and saline was supplemented via the femoral artery. The collected blood was centrifuged at 13,000 rpm for 10 minutes so as to obtain 100 μl of plasma. After adding 200 μl of methanol to the obtained plasma, the resulting solution was subjected into vortex, and then centrifuged again at 13,000 rpm for 10 minutes to carry out deproteinization, and the supernatant was quantitatively analyzed by HPLC-Fluorescence.

nasal mucous membrane = conditions: rat, intranasal; for AUC0-360min of fexofenadine, times higher than the group dosed with fexofenadine alone: fexofenadine with peptide (text on Table 1)
Protocol: Male Sprague-Dawley (SD) rats (280-300 g) were acclimated for a minimum of two days in individual cages in a laboratory animal room. At this time, the rats were allowed to freely consume food and water before an experiment, provided with light for 12 hours, and maintained in the dark state for 12 hours. One day before the experiment, the animals were provided only with water and fasted.
The rats prepared in above 1 were divided into each group of three to five rats so as to prepare a total of nine groups, after which each of the test substances prepared was intranasally administered into the group. At this time, the dosage of each drug was 1.0, 2.5 or 5.0 mg/kg per rat.
Before intranasal administration, the rat was anesthetized and cannulated into the femoral veno-artery using PE-50. The solution was carefully administered to the nostril of the rat using a micropipette (Eppendof) so as not to affect the nasal mucous membrane. At this time, the rat's body was laid on the floor and the head was placed while leaning against the wall.
The collected blood was centrifuged at 13,000 rpm for 10 minutes so as to obtain 100 μl of plasma. After adding 200 μl of methanol to the obtained plasma, the resulting solution was subjected into vortex, and then centrifuged again at 13,000 rpm for 10 minutes to carry out deproteinization, and the supernatant was quantitatively analyzed by HPLC-MS.

[1] = test system: intestinal mucous membrane; assay: Intestinal (duodenum) administration of doxorubicin with peptide or peptide dimer in rats, doxorubicin blood concentration; conditions: rat, duodenum, peptide 10 mg/kg vs doxorubicin only
Protocol: as §1, §2, §3, §4

[2] = rat, plasma, 10 mg/kg
Protocol: as §3
as §4, with “HPLC-MS.” for “HPLC-Fluorescence.”

[3] = test system: intestinal mucous membrane; conditions: rat, duodenum
Protocol: as §3
as §4, with “HPLC-MS.” for “HPLC-Fluorescence.”

Caco-2 monolayer = assay: Drug permeability through the Caco-2 monolayer with peptide; conditions: peptide 5 mM, all drugs of Table 3
in vitro = conditions: human, Caco-2
[4] = fexofenadine with peptide vs fexofenadine alone

Row | Compound | Fexofenadine AUC0-240 min, fold of control group (nasal mucous membrane; [4]) | Fexofenadine Cmax, fold of control group (nasal mucous membrane; [4]) | Fexofenadine Tmax, fold of control group (nasal mucous membrane; [4]) | Doxorubicin AUC0-240 min, fold of control [1] | other results
1 | COc1cccc2c1C(=O)c1c(O)c3c(c(O)c1C2=O)C[C@@](O)(C(=O)CO)C[C@@H]3O[C@H]1C[C@H](N)[C@H](O)[C@H](C)O1 [Doxorubicin, doxorubicin, reference compound] | – | – | – | – | AUC(0-t) (in vivo; male, Sprague-Dawley): 76.2 ng·h/mL
2 | CC[C@H](C)[C@H](NC(=O)C(CN=[N+]=[N-])NC(=O)[C@H](N)Cc1ccccc1)C(=O)NCC(=O)N[C@@H](CCCNC(=N)N)C(=O)N[C@@H](CC(C)C)C(N)=O (stereo partly drawn) [Example 1, FX1IGRL-NH2(X1=Dap(N3))] (H-[dF][ξDap(N3)]IGRL-NH2) | (1.92-fold) | 3 fold | (0.57-fold) | (1.81-fold) | Fexofenadine Cmax, fold of control group (nasal mucous membrane; fexofenadine with peptide vs fexofenadine alone, listed as H-FX1IGRL-NH2): (2.90-fold); Fexofenadine AUC0-240 min, fold of control group (nasal mucous membrane; peptide 1 mg/kg): (1.64-fold); Fexofenadine Cmax, fold of control group (nasal mucous membrane; peptide 1 mg/kg): 2 fold; Fexofenadine Tmax, fold of control group (nasal mucous membrane; peptide 1 mg/kg): (0.57-fold); Fexofenadine Cmax, fold of control group (nasal mucous membrane; peptide 1 mg/kg, listed as H-FX1IGRL-NH2): (2.01-fold); Fexofenadine AUC0-240 min, fold of control group (nasal mucous membrane; peptide 5 mg/kg): (2.48-fold); Fexofenadine Cmax, fold of control group (nasal mucous membrane; peptide 5 mg/kg): 4 fold; Fexofenadine Tmax, fold of control group (nasal mucous membrane; peptide 5 mg/kg): (0.43-fold); Fexofenadine Cmax, fold of control group (nasal mucous membrane; peptide 5 mg/kg, listed as H-FX1IGRL-NH2): (4.05-fold); Fexofenadine Tmax, fold of control group (nasal mucous membrane; peptide […]): (0.57-fold)
3 | CC[C@@H](C)[C@@H](NC(=O)[C@@H](CSSC[C@H](NC(=O)[C@H](N)Cc1ccccc1)C(=O)N[C@H](C(=O)NCC(=O)N[C@@H](CCCNC(=N)N)C(=O)N[C@@H](CC(C)C)C(N)=O)[C@@H](C)CC)NC(=O)[C@@H](N)Cc1ccccc1)C(=O)NCC(=O)N[C@H](CCCNC(=N)N)C(=O)N[C@H](CC(C)C)C(N)=O [Example 3, FCIGRL-NH2 Dimer] (I: H-F[dC][dI]G[dR][dL]-NH2 / II: H-[dF]CIGRL-NH2; disulfide I:2-II:2) | (5.30-fold) | 9.7 fold | (0.38-fold) | (2.29-fold) | AUC(0-t) [2]: 343 ng·h/mL; Exenadine AUC0-240 min, fold of control ([3]; 5 mg/kg of peptide dimer vs exenadine alone, 5 mg/kg): about 2.17 fold; Exenadine AUC0-240 min, fold of control ([3]; 5 mg/kg of peptide dimer vs exenadine alone, listed as H-FCIGRL-NH2 (Dimer), 5 mg/kg): 3.88(2.17-fold); Exenadine AUC0-240 min, fold of control ([3]; 10 mg/kg of peptide dimer vs exenadine alone, 10 mg/kg): ~4.57 fold; Exenadine AUC0-240 min, fold of control ([3]; 10 mg/kg of peptide dimer vs exenadine alone, listed as H-FCIGRL-NH2 (Dimer), 10 mg/kg): 6.32 (4.57-fold); AUC0-360min of fexofenadine, times higher than the group dosed with fexofenadine alone (nasal mucous membrane): 5.3 times; Fexofenadine Cmax, fold of control group (nasal mucous membrane; fexofenadine with peptide vs fexofenadine alone, listed as H-FCIGRL-NH2 (Dimer)): (9.76-fold); increase rate of Papp (cm/sec) of each drug, effect of promoting mucous membrane permeation (Caco-2 monolayer): at least seven times higher; AUC(0-t) (in vivo; 10 mg/kg): 174 ng·h/mL
4 | CC[C@H](C)[C@H](NC(=O)[C@H](CSSC[C@H](NC(=O)[C@@H](N)Cc1ccccc1)C(=O)N[C@H](C(=O)NCC(=O)N[C@@H](CCCNC(=N)N)C(=O)N[C@@H](CC(C)C)C(=O)O)[C@@H](C)CC)NC(=O)[C@@H](N)Cc1ccccc1)C(=O)NCC(=O)N[C@@H](CCCNC(=N)N)C(=O)N[C@@H](CC(C)C)C(=O)O [Example 4, FCIGRL-OH Dimer] (I: H-FCIGRL-OH / II: H-FCIGRL-OH; disulfide I:2-II:2) | (3.64-fold) | 6 fold | (0.41-fold) | – | AUC0-360min of fexofenadine, times higher than the group dosed with fexofenadine alone (nasal mucous membrane): 3.6 times; Fexofenadine Cmax, fold of control group (nasal mucous membrane; fexofenadine with peptide vs fexofenadine alone, listed as H-FCIGRL-OH (Dimer)): (6.06-fold)
5 | CC[C@H](C)[C@H](NC(=O)[C@H](CSSC[C@H](NC(=O)[C@H](Cc1ccccc1)NC(=O)[C@@H](N)CN=[N+]=[N-])C(=O)N[C@H](C(=O)NCC(=O)N[C@@H](CCCNC(=N)N)C(=O)N[C@@H](CC(C)C)C(N)=O)[C@@H](C)CC)NC(=O)[C@H](Cc1ccccc1)NC(=O)[C@@H](N)CN=[N+]=[N-])C(=O)NCC(=O)N[C@@H](CCCNC(=N)N)C(=O)N[C@@H](CC(C)C)C(N)=O [Example 5, X1FCIGRL-NH2 Dimer] (I: H-[Dap(N3)]FCIGRL-NH2 / II: H-[Dap(N3)]FCIGRL-NH2; disulfide I:3-II:3) | – | – | – | (1.77-fold) | –
6 | COCCc1ccc(OCC(O)CNC(C)C)cc1 (stereo not drawn) [metoprolol] | – | – | – | – | Papp (in vitro): 38.9 ×10⁻⁶ cm/s
7 | FCIGRL [Preparation Example 2, FCIGRL, reference compound] | (1.53-fold) | (1.16-fold) | (1.52-fold) | – | –
8 | FCIGRL-NH2 [Preparation Example 1, FCIGRL-NH2, reference compound] | (1.70-fold) | (1.45-fold) | (1.14-fold) | (1.49-fold) | –
9 | FKIGRL [Preparation Example 4, FKIGRL, reference compound] | (1.09-fold) | (0.71-fold) | (1.14-fold) | – | –
10 | FRIGRL [Preparation Example 3, FRIGRL, reference compound] | (1.39-fold) | (0.73-fold) | (1.71-fold) | – | –
